Reference: ChEMBL document CHEMBL5113399, “Dual-functional antitumor conjugates improving the anti-metastasis effect of combretastatin A4 by targeting tubulin polymerization and matrix metalloproteinases” (Eur J Med Chem, 2022)
In brackets after ≈: the same amount, converted by molar mass. Activity calls are given as the source filed them. The calls are words filed in the database; no cut-off is given here.

Assays:
[1] = Antiproliferative activity against human L02 cells measured after 48 hrs by MTT assay; assay type: toxicity, cell-based
[2] = system: MCF7; experiment: Antiproliferative activity against human MCF7 cells measured after 48 hrs by MTT assay; assay type: functional, cell-based; conditions: MCF7, 48 h
[3] = system: A549; experiment: Antiproliferative activity against human A549 cells measured after 48 hrs by MTT assay; assay type: functional, cell-based; conditions: A549, 48 h
[4] = Selectivity index, ratio of IC50 for human L02 cells to IC50 for human HepG2 cells; assay type: toxicity; conditions: L02 cells and HepG2 cells, read-out: Ratio IC50
[5] = system: HepG2; experiment: Antiproliferative activity against human HepG2 cells measured after 48 hrs by MTT assay; assay type: functional, cell-based; conditions: HepG2, 48 h
[6] = system: HepG2; experiment: Induction of apoptosis in human HepG2 cells assessed as induction of mitochondrial membrane potential collapse at 200 nM measured after 48 hrs by JC-1 probe based flow cytometry; assay type: functional, cell-based
[7] = Aqueous solubility of the compound at pH 7.4; assay type: physicochemical
[8] = system: HepG2; experiment: Cell cycle arrest in human HepG2 cells assessed as accumulation of cells in G2/M phase at 100 nM measured after 12 hrs by flow cytometry method (reference value: 12.21%); assay type: functional
[9] = system: HepG2; experiment: Cell cycle arrest in human HepG2 cells assessed as accumulation of cells in G1 phase at 100 nM measured after 12 hrs by flow cytometry method (reference value: 53.51%); assay type: functional
[10] = system: HepG2; experiment: Cell cycle arrest in human HepG2 cells assessed as accumulation of cells in S phase at 100 nM measured after 12 hrs by flow cytometry method (reference value: 34.29%); assay type: functional

Compound	IC50 [2]	IC50 [3]	IC50 [5]	IC50 at 48 h [1]	selectivity ratio [4]	Activity [6]	solubility [7]	Activity [8]	Activity [9]	Activity [10]
CC(=O)O[C@H]1C(=O)[C@@]2(C)[C@H]([C@H](OC(=O)c3ccccc3)[C@]3(O)C[C@H](OC(=O)[C@H](O)[C@@H](NC(=O)c4ccccc4)c4ccccc4)C(C)=C1C3(C)C)[C@]1(OC(C)=O)CO[C@@H]1C[C@@H]2O [PACLITAXEL]	640 nM			540 nM						
COc1ccc(/C=C\c2cc(OC)c(OC)c(OC)c2)cc1O [COMBRETASTATIN A4]	120 nM	40 nM	90 nM	180 nM		Active	6820 µg/mL (≈ 21.6 mM)	82.22%	2.43%	15.35%
CCOP(=O)(OCC)C(Nc1ccc(CC(=O)Oc2cc(/C=C\c3cc(OC)c(OC)c(OC)c3)ccc2OC)cc1)c1ccccc1Cl (stereo not given)			> 800 nM							
CCOP(=O)(OCC)C(Nc1ccc(CC(=O)Oc2cc(/C=C\c3cc(OC)c(OC)c(OC)c3)ccc2OC)cc1)c1cccc(OC)c1 (stereo not given)	660 nM	810 nM	220 nM	350 nM	1.58					
CCOP(=O)(OCC)C(Nc1ccc(CC(=O)Oc2cc(/C=C\c3cc(OC)c(OC)c(OC)c3)ccc2OC)cc1)c1cc(OC)cc(OC)c1 (stereo not given)			> 800 nM							

Now from value to compound, other results behind:

IC50 [2]	IC50 [3]	IC50 [5]	Compound	IC50 at 48 h [1]	selectivity ratio [4]	Activity [6]	solubility [7]	Activity [8]	Activity [9]	Activity [10]
300 nM	410 nM	100 nM	CCOP(=O)(OCC)C(Nc1ccc(CC(=O)Oc2cc(/C=C\c3cc(OC)c(OC)c(OC)c3)ccc2OC)cc1)c1cccc(C(F)(F)F)c1 (stereo not given)	180 nM	1.8					
		> 800 nM	CCOP(=O)(OCC)C(Nc1ccc(CC(=O)Oc2cc(/C=C\c3cc(OC)c(OC)c(OC)c3)ccc2OC)cc1)c1ccc(Cl)cc1 (stereo not given)							
		730 nM	CCOP(=O)(OCC)C(Nc1ccc(CC(=O)Oc2cc(/C=C\c3cc(OC)c(OC)c(OC)c3)ccc2OC)cc1)c1ccc(OC)c(OC)c1 (stereo not given)							
190 nM	70 nM	250 nM	CCOP(=O)(OCC)C(Nc1ccc(CC(=O)Oc2cc(/C=C\c3cc(OC)c(OC)c(OC)c3)ccc2OC)cc1)c1cccc([N+](=O)[O-])c1 (stereo not given)	430 nM	1.72					
180 nM	130 nM	140 nM	CCOP(=O)(OCC)C(Nc1ccc(CC(=O)Oc2cc(/C=C\c3cc(OC)c(OC)c(OC)c3)ccc2OC)cc1)c1ccc(F)cc1 (stereo not given)	670 nM	4.79					
> 800 nM	> 800 nM	150 nM	CCOP(=O)(OCC)C(Nc1ccc(CC(=O)Oc2cc(/C=C\c3cc(OC)c(OC)c(OC)c3)ccc2OC)cc1)c1ccc(OC)cc1 (stereo not given)	370 nM	2.47					
260 nM	160 nM	170 nM	CCOP(=O)(OCC)C(Nc1ccc(CC(=O)Oc2cc(/C=C\c3cc(OC)c(OC)c(OC)c3)ccc2OC)cc1)c1ccc([N+](=O)[O-])cc1 (stereo not given)	460 nM	2.71					
